# Key:
# [1] = molecular target: T1, prejunctional alpha2 (α2-adrenoceptor) (Cavia porcellus, UniProt Q60474); experiment: prejunctional alpha2-antagonist activity, isolated superfused guinea pig left atrium (clonidine concentration-response shift); format: cell-based; details: clonidine as agonist, superfused with antagonist for thirty minutes, read-out: receptor dissociation constant of the antagonist (KB)
# T1 construct: The left atrium is removed, dissected free of extraneous tissue and mounted in a 2 ml superfusion chamber; from tissue; host or cells: guinea pig (male) left atrium, sympathetic nerve endings
# T1 sequence (Q60474 1-464): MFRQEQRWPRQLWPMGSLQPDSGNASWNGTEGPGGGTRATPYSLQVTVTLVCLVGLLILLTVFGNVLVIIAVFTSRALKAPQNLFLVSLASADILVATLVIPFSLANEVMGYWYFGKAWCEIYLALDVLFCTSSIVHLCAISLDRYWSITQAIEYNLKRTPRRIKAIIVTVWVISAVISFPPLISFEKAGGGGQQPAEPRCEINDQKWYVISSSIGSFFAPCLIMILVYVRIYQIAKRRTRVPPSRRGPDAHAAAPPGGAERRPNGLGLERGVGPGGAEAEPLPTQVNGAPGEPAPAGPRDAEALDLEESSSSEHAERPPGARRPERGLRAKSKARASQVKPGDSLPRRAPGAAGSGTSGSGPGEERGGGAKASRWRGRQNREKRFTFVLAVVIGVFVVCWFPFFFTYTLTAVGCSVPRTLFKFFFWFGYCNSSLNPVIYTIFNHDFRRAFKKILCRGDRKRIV
# Protocol: Briefly, the heart is removed from a pentobarbital-anesthetized male guinea pig. The left atrium is removed, dissected free of extraneous tissue and mounted in a 2 ml superfusion chamber. The tissue is paced at 60 pulse/minute and the sympathetic nerves excited at 6 minute intervals by field stimulation. The response to nerve stimulation is measured as the difference in contractile force between the basal contraction and peak contraction following a nerve stimulation. A concentration-response curve for clonidine (a known alpha2 -agonist) is prepared by administering increasing concentrations of clonidine following each successive stimulation. The tissue is, then, superfused with the alpha2 -antagonist to be tested for thirty minutes and the clonidine concentration-effect curve is repeated in the presence of antagonist. The receptor dissociation constant of the antagonist (KB) is defined as the antagonist concentration required to shift the log concentration-response curve of the agonist to the right by a factor of 2.
# Pharmacol. 309 217-224 (1979). The preferred species of this invention, i.e. the 9-azido-3-methyl-6-chloro compound, has a KB value of 158 nM in the atrium test.
# [2] = tested on: α2 sites; experiment: competitive binding to α2 sites
# [3] = tested on: α2 sites; experiment: photolytic inactivation of α2 binding on ultraviolet irradiation
# [4] = tested on: α2 sites; experiment: protection against photolytic deactivation by concomitant adrenoceptor agents; format: binding; details: concomitant with the 9-azido-3-methyl-6-chloro compound, ultraviolet light
structure (smiles),measurement,setting,value
"CN1CCc2c(Cl)ccc(N=[N+]=[N-])c2CC1 [9-azido-3-methyl-6-chloro compound, 9-azido-6-chloro-3-methyl-2,3,4,5-tetrahydro-1H-3-benzazepine]",Kb,[1],158 nM
same,mode of binding to α2 sites,[2]; without irradiation,bind competitively
same,Ki,[2]; α2 sites,42 nM
same,binding effect when irradiated with ultraviolet light,[3],the binding effect is made irreversible
same,dependence of photolytic inactivation,[3]; irradiated with ultraviolet light,concentration and time dependent
COc1cc2nc(N3CCN(C(=O)c4ccco4)CC3)nc(N)c2cc1OC [Prazosin],effect of concomitant presence on photolytic deactivation,[4],no effect
Nc1cc(Cl)c(NC2=NCCN2)c(Cl)c1 [p-aminoclonidine],effect of concomitant presence on photolytic deactivation,[4],complete protection
Cc1ccc(N(CC2=NCCN2)c2cccc(O)c2)cc1 [phentolamine],effect of concomitant presence on photolytic deactivation,[4],partially blocks the photolytic deactivation

# From patent US4652642A, “Azidobenzazepines” (SmithKline Beckman Corporation, priority 1984, dated 1987)
